Here are results for one compound from paper PMC9841525, “Chemical Blockage of the Mitochondrial Rhomboid Protease PARL by Novel Ketoamide Inhibitors Reveals Its Role in PINK1/Parkin-Dependent Mitophagy” (Journal of Medicinal Chemistry, 2022).

The term IC50 denotes the point on the concentration scale where inhibition reaches its midpoint.

*1 amine or outer side, *2 acyl side, *3 side chain or, on linkers, in order; H or OH if unused. Where a SMILES comes first, the peptide text is derived from it. [ ]: non-standard residue; d: D form. The star is where a group is joined. NH(4-phenylbutyl) = c1ccc(CCCCN*)cc1; X1 = C[C@H](N[*:1])C(=O)C(=O)[*:2]

For assay [1], the target named is T1, PARL (Homo sapiens, UniProt Q9H300).
T1 sequence (Q9H300 53-379): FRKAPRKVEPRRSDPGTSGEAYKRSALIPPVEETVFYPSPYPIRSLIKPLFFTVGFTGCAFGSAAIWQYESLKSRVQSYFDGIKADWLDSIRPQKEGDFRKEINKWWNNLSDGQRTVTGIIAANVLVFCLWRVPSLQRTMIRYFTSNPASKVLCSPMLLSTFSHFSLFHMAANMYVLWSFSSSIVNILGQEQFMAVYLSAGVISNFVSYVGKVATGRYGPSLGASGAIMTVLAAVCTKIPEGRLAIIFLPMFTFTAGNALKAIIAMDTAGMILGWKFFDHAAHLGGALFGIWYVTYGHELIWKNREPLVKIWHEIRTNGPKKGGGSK
The assay can be described thus: PARL inhibition assay in cells: cleavage of overexpressed PGAM5-Myc by tetracycline-induced PARL-FLAG, immunoblot. In kind it is cell-based. Further details: expressed in transfected cells; host or cells: Flp-In HEK293 T-REx PARL knockout cells. As for the experimental part: PARL inhibition assays in cells were carried out in Flp-In HEK293 T-REx PARL knockout cells stably transfected with tetracycline inducible PARL-FLAG grown in DMEM (Gibco) supplemented with 10% (v/v) tetracycline-free fetal bovine serum (Clontech). For the inhibition assay, 0.7 × 10^6 cells were seeded per well of a 6-well plate, and the next day transfected with 5 μg of human PGAM5-Myc in pcDNA and 15 μg of branched polyethylenimine (Polysciences) per well. Four hours after transfection, the PARL expression was induced by adding tetracycline to 1 μg/mL. Eight hours after transfection, the inhibitors were added to each well in different concentrations in serum-free DMEM with 1% DMSO.
For immunoblot analysis of the effects of PARL inhibitors on PGAM5 cleavage, after overnight incubation with inhibitors, cells from each well were harvested in 1× SDS sample buffer containing 20 mM MgCl2 and Pierce universal nuclease (250 U/mL, Thermo Scientific) and heated to 65 °C for 10 min. Loading volumes for SDS-PAGE were adjusted by measuring total protein concentration in the lysates with Pierce 660 nm Protein Assay Reagent and Ionic Detergent Compatibility Reagent for Pierce 660 nm Protein Assay Reagent (Thermo Scientific). Samples were resolved by SDS-PAGE using a 12% polyacrylamide gel (Biorad) and electrotransferred onto an Immobilon PVDF membrane (Merck Millipore). Blots were blocked using casein blocker (Thermo Scientific) and hPGAM5 was labeled by rabbit anti-Myc antibody (Cell Signaling Technology, cat. #2278, dilution 1:1000) at 4 °C overnight. Blots were washed three times with TBS-T and incubated with IRDye 800 CW donkey anti-rabbit antibody (Invitrogen, cat. #SA5-10044, dilution 1:10,000) at room temperature for 2 h. Membranes were then again washed three times with TBS-T and one time with TBS. Fluorescence emission at […] of dried membranes was scanned on Odyssey CLx (LI-COR). Cleavage efficiency and inhibition were analyzed as described[23] using Image Studio Lite (LI-COR), Excel (Microsoft) and GraphPad Prism 9 (GraphPad Software, Inc.).
Background: A western blot detects proteins with antibodies after separation by electrophoresis.

In assay [2] the target is T1, PARL. The assay can be described thus: PARL inhibition in vitro, PARL in liposomes with substrate compound 4. More on the design: hexahistidine tag (C); made in house; host or cells: continuous-exchange cell-free expression in bacterial lysates with T7 polymerase (CUBE biotech), into liposomes. In kind it is biochemical. As to the method:
Liposome preparation and cell-free protein expression of PARL were carried out essentially as described previously.[27] Liposomes resembling the lipid composition of the IMM were prepared by mixing 40% DOPC (1,2-dioleoyl-sn-glycero-3-phosphocholine), 33.8% DOPE (1,2-dioleoyl-sn-glycero-3-phosphoethanolamine), 18% CL(18:1)4 (1′,3′-bis[1,2-dioleyl-sn-glycero-3-phospho]-glycerol), 3% DOPS (1,2-dioleoyl-sn-glycero-3-phospho-L-serine), 5% soy-PI (L-α-phosphatidylinositol), and 0.2% rhodamine-PE (1,2-dioleoyl-sn-glycero-3-phosphoethanolamine-N-(lissamine rhodamine B sulfonyl)) in chloroform, followed by the evaporation of chloroform by a stream of nitrogen gas and drying in a vacuum chamber (Binder) for 1 h. Dried lipids were dissolved in buffer (5 mM Tris/HCl, pH 8.5, 10 mM KOAc) and extruded 21 times through a mini extruder (Avanti Polar Lipids) using a polycarbonate membrane with a pore size of […]. […] The PARL-containing liposomes were purified by a step-wise sucrose step-gradient centrifugation (0, 15, 30, and 40% sucrose in 5 mM HEPES pH 7.5 with 25 mM NaCl) for 2 h at 200,000 × g. Soluble proteoliposomes were harvested at the 0%/15% sucrose interface after the centrifugation. Concentration of PARL was determined by absorption at 280 nm.
PARL inhibition in vitro was measured in 5 mM Tris, 5 mM Mg(OAc)2, 25 μM Zn(OAc)2, 0.1 μg/μL BSA, 10% DMSO, pH 8.0 using PARL in liposomes at 0.07 mg/mL and compound 4 at 100 μM final concentration. Inhibitor concentrations were determined by quantitative amino acid analysis. Inhibitors in DMSO were dissolved at the respective concentrations into the reaction buffer by vigorous mixing at 1000 rpm, 37 °C for 40 min and then pre-incubated with PARL in liposomes at 37° for 1 h. The cleavage reaction was started by adding compound 4 and carried out at 37 °C in 96-well black HTS plates (Greiner Bio-One). Fluorescence was read in a plate reader (Tecan Infinite M1000) with excitation and emission wavelengths set to 355 and 450 nm, respectively. Data were evaluated using Excel (Microsoft) and GraphPad Prism 9 (GraphPad Software, Inc.). The data shown are representative of at least three independent experiments.

On to `CC(=O)N[C@@H](C)C(=O)N[C@H](C(=O)N[C@@H](Cc1ccccc1)C(=O)N[C@@H](CC(C)C)C(=O)N[C@@H](C)C(=O)C(=O)NCCCCc1ccccc1)C(C)C` [compound 5] (Ac-AVFL[X1]-{NH(4-phenylbutyl)}), for which the IC50 on PARL [1] (Flp-In HEK293 T-REx PARL KO cells with inducible PARL-FLAG, PGAM5-Myc, mean ± SEM of four or three experiments, read-out: Apparent IC50, PGAM5 cleavage by overexpressed PARL) was 410 nM; at PARL [2] (recombinant mature PARL in liposomes, 100 μM substrate compound 4, mean ± SEM of three or four measurements), 28 nM. The “Fold better than compound 6 in cells” value on PARL [1] (ratio of apparent IC50 values, compound 5 vs compound 6) is given as “about 8 fold”. Moreover, at PARL [2] (ratio of IC50 values, compound 5 vs compound 6), the “Fold better than compound 6 in vitro” value was “about 3 fold”.
